Experimental findings from US5240696A, “Treatment of periodontitis” (Chesebrough-Pond's USA Co., Division of Conopco, Inc., priority 1991, dated 1993) are described below.

Read-outs that look alike come from different tables or passages of the source.

For one data set, the target named is T1, cyclo-oxygenase (Ovis aries, UniProt P05979).
T1 construct: microsomal enzyme fraction, obtained from a 220,000 x g precipitate of a homogenate of sheep vesicular glands; from tissue; host or cells: sheep vesicular glands (lyophilized microsomal fraction, 220,000 x g precipitate)
T1 sequence (P05979 25-600): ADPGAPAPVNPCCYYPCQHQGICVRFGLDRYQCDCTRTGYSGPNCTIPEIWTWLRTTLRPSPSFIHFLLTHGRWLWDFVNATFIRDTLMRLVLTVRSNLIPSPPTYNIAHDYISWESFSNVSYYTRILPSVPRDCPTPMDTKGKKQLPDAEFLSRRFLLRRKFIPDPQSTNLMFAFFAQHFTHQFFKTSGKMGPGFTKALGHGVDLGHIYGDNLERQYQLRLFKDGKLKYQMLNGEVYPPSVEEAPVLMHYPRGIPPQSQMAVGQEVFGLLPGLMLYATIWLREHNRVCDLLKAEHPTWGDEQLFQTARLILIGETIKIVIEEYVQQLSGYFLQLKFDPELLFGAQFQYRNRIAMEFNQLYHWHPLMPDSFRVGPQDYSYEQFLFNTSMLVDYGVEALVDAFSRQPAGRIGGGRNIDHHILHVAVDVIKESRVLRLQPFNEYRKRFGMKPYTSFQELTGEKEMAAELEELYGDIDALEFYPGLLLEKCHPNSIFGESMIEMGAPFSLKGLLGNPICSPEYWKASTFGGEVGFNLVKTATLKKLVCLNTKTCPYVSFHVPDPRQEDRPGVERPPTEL
Nature of the data set: cyclo-oxygenase assay (oxygen consumption, Clark oxygen electrode). It is filed as biochemical, sheep. As for the experimental part:
In vitro experiments were carried out to determine the I50 value of various cyclo-oxygenase inhibitors. […] These experiments were carried out as described in the general method given below, keeping the enzyme and substrate concentrations constant and using increasing inhibitor concentrations. Determinations at each inhibitor concentrations were carried out in duplicate.
The cyclo-oxygenase assay was carried out according to the method described by van der Ouderaa et al., "Methods in Enzymology" 86, page 60-68 (Academic Press Inc., 1982).
0.1M Tris-HCl (pH 8.0) kept at 25° C. and continuously aerated by bubbling air through the solution.
20 mg/ml in toluene kept under nitrogen at -20° C.
0.5 ml of stock solution was taken and the toluene removed under a stream of nitrogen. The substrate was suspended in 10 ml of incubation buffer, freshly prepared each day and kept at room temperature.
500 mg of dry lyophilized microsomal enzyme fraction, obtained from a 220,000 x g precipitate of a homogenate of sheep vesicular glands, was dispersed in 10 ml of incubation buffer for 5 min. using an Ultra Turrax homogeniser. The suspension was kept in ice throughout the experiment and shaken well before each sample was withdrawn.
0.23 mM in distilled water freshly prepared each day and kept on ice.
0.1 mM made up in incubation buffer, freshly prepared each day and kept on ice.
The cyclo-oxygenase activity was measured at 25° C. by monitoring the oxygen consumption as a result of cyclo-oxygenation of the substrate using a Clark oxygen electrode.
A typical experimental run was carried out as follows.
The mixture was then stirred for 5 min. to allow temperature equilibrium and to achieve a steady baseline on the chart recorder monitoring the dissolved oxygen concentration. Substrate solution (100 μl) was quickly injected into the cell to start the reaction and the oxygen consumption was typically monitored for 5 min. following addition of substrate.
The cyclo-oxygenase activity of the sample was calculated from the oxygen consumption curve assuming that maximum deflection of the recorder corresponds to 0.26 mM dissolved oxygen in the buffer and that 2 moles of oxygen are consumed per mole of substrate. The linear part of the sigmoid curve of oxygen consumption was used for initial-rate calculations.
The experiments were standardised by measuring the activity of the enzyme stock solution before and after each set of kinetic experiments and normalizing results to the mean activity.
Triclosan was dissolved in ethanol; AN-10 and APCF3-8 were dissolved in polyethyleneglycol (MW 400) and sodium salicylate was used as an aqueous solution. The concentration of the inhibitor solutions were adjusted so that only 10 μl of the inhibitor solution was added.

For data set [1], the system named is Neonatal mouse calvaria. Nature of the data set: Bone loss in vitro: calcium release from calvaria stimulated with PGE2. Format: cell-based. The note with it: Example 2. How it is done:
(§1) The experimental method used is fully described in Meghi,S et al. Brit. J. Cancer (1988) 58, pp 17-21. Neonatal mouse calvaria were isolated with minimum trauma and maintained in a nutrient medium appropriate for cell culture (DMEM+15% horse serum) at […] in 100% humidity, the medium also containing the materials under test. The pH was maintained in an atmosphere of 5% CO2. After 24 h the medium was discarded, the calvaria were divided into control and test groups, and the medium was replaced with fresh medium containing the materials under test. Prostaglandin E2 (PGE2, 10^-6 M) was added with or without Triclosan as appropriate to stimulate the release of calcium ions (i.e. bone resorption) from the calvaria. After two days further culture in the test media the release of calcium into the medium from the calvaria was determined by atomic absorption spectroscopy. Calcium release is a measure of bone resorption (i.e. degradation of bone) regulated by the specialised cells (osteoblasts and osteoclasts) on the bone surface. Net calcium release was obtained by subtracting the basal medium calcium level.

The subject of data set [2] is Neonatal mouse calvaria. Nature of the data set: Bone loss in vitro: calcium release from calvaria stimulated with thrombin. Format: cell-based. How it is done:
as §1
The test method of Example 2 was repeated, using thrombin, however, as bone loss stimulator, and using indomethacin as a cyclo-oxygenase inhibitor as control.
The procedure of Example 3 was repeated, also using zinc citrate as addition.

Data set [3] in a line: Retention by gingival tissue following topical application. The note with it: in vitro and in vivo.
The subject of data set [4] is Actinobacillus actinomycetemcomitans. Nature of the data set: MIC-value of Triclosan for periodontal micro organisms. It is filed as cell-based.
[5] abbreviates: sheep vesicular gland microsomal enzyme, 8,11,14-eicosatrienoic acid substrate, 25° C., pH 8.0, read-out: I50 (concentration of inhibitor which gives 50% inhibition of cyclo-oxygenase activity).

Take `CCCCCCCCCC(=O)c1ccc(O)c(C(=O)Nc2ccc([N+](=O)[O-])cc2)c1` [AN-10, 5-n-decanoyl-4'nitrosalicylanilide]: at cyclo-oxygenase (setting [5]), the IC50 came out at 180 µM.
Still for that read-out and setting: the same measure for `CCCCCCCC(=O)c1ccc(O)c(C(=O)Nc2cccc(C(F)(F)F)c2)c1` [APCF3-8, 5-n-octanoyl-'trifluoromethylphenyl-salicylanilide]: 240 µM.
For the compound `CCCCC[C@H](O)/C=C/[C@H]1[C@H](O)CC(=O)[C@@H]1C/C=C\CCCC(=O)O` [PGE2, Prostaglandin E2], the “Net Calcium Release” value in the data set with Neonatal mouse calvaria [1] (PGE2 10^-6 M alone (positive control), two days culture) came out at 3.5 mg/dL.
On cyclo-oxygenase, `Oc1cc(Cl)ccc1Oc1ccc(Cl)cc1Cl` [Triclosan, 2',4,4'-trichloro-2-hydroxy-diphenyl-ether] displayed an IC50 of 155 µM. Moreover, the anti-cyclo-oxygenase activity result at cyclo-oxygenase (in words) is given as “considerable anti-cyclo-oxygenase activity”. The “anti-inflammatory potency compared with the preferred substituted salicylamides” value at cyclo-oxygenase (in words, salicylamides of U.S. Pat. No. 4,742,083) is listed as “much more potent anti-inflammatory agent than the preferred substituted salicylamides”. For the same compound, the “Net Calcium Release” value is 0.2 mg/dL in the data set with Neonatal mouse calvaria [2] (Example 3, + thrombin and 1.10^-5 M Triclosan); -0.6 mg/dL in the data set on Neonatal mouse calvaria [2] (Example 3, + thrombin and 5.10^-5 M Triclosan); 0.75 mg/dL in the data set with Neonatal mouse calvaria [2] (Example 4, + thrombin and 5.10^-6 M Triclosan); 1.4 mg/dL with Neonatal mouse calvaria [1] (+ PGE2 (10^-6 M) and 1.10^-5 Triclosan); -0.1 mg/dL in the data set with Neonatal mouse calvaria [1] (+ PGE2 (10^-6 M) and 2.5.10^-5 M Triclosan). The “retention by gingival tissue” value in data set [3] is “retained by gingival tissue both in vitro and in vivo”. In data set [4], the MIC-value is reported as 0.0005%.
In the case of `COc1ccc2c(c1)c(CC(=O)O)c(C)n2C(=O)c1ccc(Cl)cc1` [indomethacin], the “Net Calcium Release” value in the data set on Neonatal mouse calvaria [2] (Example 3, + thrombin and 10^-6 M indomethacin) amounted to 0.4 mg/dL; with Neonatal mouse calvaria [2] (Example 4, + thrombin and 10^-6 M indomethacin), 0.0 mg/dL.
Regarding `O=C([O-])CC(O)(CC(=O)[O-])C(=O)[O-].O=C([O-])CC(O)(CC(=O)[O-])C(=O)[O-].[Zn+2].[Zn+2].[Zn+2]` [zinc citrate], the “Net Calcium Release” value in the data set on Neonatal mouse calvaria [2] (Example 4, + thrombin and 1.10^-4 M zinc citrate) worked out at 1.3 mg/dL; in the data set with Neonatal mouse calvaria [2] (Example 4, + thrombin and 2.10^-4 M zinc citrate) it was 0.8 mg/dL; with Neonatal mouse calvaria [2] (Example 4, + thrombin and 5.10^-5 M zinc citrate) it was 1.4 mg/dL.
Consider thrombin, for which the “Net Calcium Release” value in the data set with Neonatal mouse calvaria [2] (Example 3, + thrombin alone) is 3.9 mg/dL; in the data set with Neonatal mouse calvaria [2] (Example 4, thrombin alone), 2.4 mg/dL.
